{"source": "paper PMC11992128", "about": "“Inhibition of Rho GEFs attenuates pulmonary fibrosis through suppressing myofibroblast activation and reprogramming profibrotic macrophages” (Cell Death & Disease, 2025)", "key": {"[1]": {"target": "T1, DH/PH domain of LARG (Leukemia-associated RhoGEF); ARHGEF12(765-1138aa) (Homo sapiens, UniProt Q9NZN5)", "T1 construct": "DH/PH domain; GST-ARHGEF12(765-1138aa) by lentivirus in NIH/3T3 for the cell tests", "T1 sequence (Q9NZN5 765-1138)": "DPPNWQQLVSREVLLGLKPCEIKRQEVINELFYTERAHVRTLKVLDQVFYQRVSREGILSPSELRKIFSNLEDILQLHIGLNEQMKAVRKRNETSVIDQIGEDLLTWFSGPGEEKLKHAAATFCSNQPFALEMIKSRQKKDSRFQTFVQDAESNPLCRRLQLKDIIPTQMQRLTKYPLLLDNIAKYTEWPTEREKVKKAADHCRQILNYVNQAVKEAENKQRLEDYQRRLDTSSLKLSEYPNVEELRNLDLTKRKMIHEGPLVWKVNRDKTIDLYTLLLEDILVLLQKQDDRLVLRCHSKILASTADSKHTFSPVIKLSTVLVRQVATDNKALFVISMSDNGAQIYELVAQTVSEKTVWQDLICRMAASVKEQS", "experiment": "surface plasmon resonance (Biacore S200, CM5 chip, immobilised protein)", "format": "binding"}, "[2]": {"target": "T1, DH/PH domain of LARG (Leukemia-associated RhoGEF); ARHGEF12(765-1138aa)", "experiment": "CETSA, NIH/3T3 expressing the GST-tagged domain, Western blot", "format": "cell-based", "conditions": "75 μM GL-V9, 3 h"}}}
{"smiles": "COc1c(OCCCCN2CCCC2)cc(O)c2c(=O)cc(-c3ccccc3)oc12", "note": "[GL-V9, 5-hydroxy-8-methoxy-2-phenyl-7-(4-(pyrrolidine-1-yl)butoxy) 4H-chromen-4-one]", "values": [{"measurement": "Kd", "setting": "[1]", "value": 11.8, "unit": "µM"}, {"measurement": "thermal stability", "setting": "[2]", "value": "GL-V9 significantly enhanced the thermal stability of the wild-type DH/PH domain"}]}
